Reference: PMC4915685 (PLoS ONE, 2016)

Experiments:
human plasma protein = test: Plasma protein binding; assay type: in vitro ADME; details: over the range of 0.1 to 10 μg/mL (unpublished results)
[1] = target: T1, prolyl endopeptidase (PEP) (Rattus norvegicus, UniProt O70196); test: PEP inhibition assay; assay type: biochemical
T1 construct: were prepared from rat kidney and brain, respectively; from tissue; host or cells: rat brain
T1 sequence (O70196 1-710): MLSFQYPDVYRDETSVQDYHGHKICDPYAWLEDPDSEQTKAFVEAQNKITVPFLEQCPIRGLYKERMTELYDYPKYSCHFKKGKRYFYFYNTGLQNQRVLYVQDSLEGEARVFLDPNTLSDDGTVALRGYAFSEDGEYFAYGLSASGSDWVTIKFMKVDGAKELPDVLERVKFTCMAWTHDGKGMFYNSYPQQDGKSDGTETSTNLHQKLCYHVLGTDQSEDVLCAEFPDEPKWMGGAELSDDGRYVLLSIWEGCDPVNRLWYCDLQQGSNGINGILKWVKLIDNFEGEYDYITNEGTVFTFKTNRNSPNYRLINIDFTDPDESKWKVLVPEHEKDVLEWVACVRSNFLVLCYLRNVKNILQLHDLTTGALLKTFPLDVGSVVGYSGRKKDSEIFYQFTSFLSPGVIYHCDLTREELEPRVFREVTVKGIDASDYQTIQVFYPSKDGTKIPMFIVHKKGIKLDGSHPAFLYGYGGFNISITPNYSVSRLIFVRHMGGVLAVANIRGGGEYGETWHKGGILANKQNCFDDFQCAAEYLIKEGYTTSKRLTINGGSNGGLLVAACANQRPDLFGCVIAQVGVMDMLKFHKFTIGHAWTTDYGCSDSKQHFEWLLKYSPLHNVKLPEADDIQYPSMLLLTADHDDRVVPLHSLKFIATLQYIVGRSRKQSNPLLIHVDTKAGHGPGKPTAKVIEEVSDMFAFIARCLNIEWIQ

[2] = target: T2, dog plasma DPP-4 activity (Canis lupus familiaris, UniProt A0A8I3Q2I8); test: Inhibition of plasma DPP-4 activity, dog plasma (GP-pNA); assay type: biochemical
T2 construct: tissue Kitayama Labes Co., Ltd. (animals); host or cells: beagle dog plasma
Description: Male Sprague–Dawley rats (7 weeks old, n = 30) and male beagle dogs (2–5 years old, n = 3) were purchased from CLEA Japan (Tokyo, Japan) and Kitayama Labes Co., Ltd. (Nagano, Japan), respectively. […] Rat blood samples were taken from abdominal vein under ether inhalation anesthesia in anesthetized rats before euthanasia by exsanguination. Dog blood samples were collected from anterior limb veins in conscious dogs that were restrained in a retainer. […] Plasma samples were prepared and stored at -80°C before use.

[3] = set-up: method as in earlier work; details: 100 mg single dose, 168 hours after administration, Japanese healthy volunteers; cited from earlier work
T2DM patients = details: cited from earlier work

T2 sequence (A0A8I3Q2I8 1-765): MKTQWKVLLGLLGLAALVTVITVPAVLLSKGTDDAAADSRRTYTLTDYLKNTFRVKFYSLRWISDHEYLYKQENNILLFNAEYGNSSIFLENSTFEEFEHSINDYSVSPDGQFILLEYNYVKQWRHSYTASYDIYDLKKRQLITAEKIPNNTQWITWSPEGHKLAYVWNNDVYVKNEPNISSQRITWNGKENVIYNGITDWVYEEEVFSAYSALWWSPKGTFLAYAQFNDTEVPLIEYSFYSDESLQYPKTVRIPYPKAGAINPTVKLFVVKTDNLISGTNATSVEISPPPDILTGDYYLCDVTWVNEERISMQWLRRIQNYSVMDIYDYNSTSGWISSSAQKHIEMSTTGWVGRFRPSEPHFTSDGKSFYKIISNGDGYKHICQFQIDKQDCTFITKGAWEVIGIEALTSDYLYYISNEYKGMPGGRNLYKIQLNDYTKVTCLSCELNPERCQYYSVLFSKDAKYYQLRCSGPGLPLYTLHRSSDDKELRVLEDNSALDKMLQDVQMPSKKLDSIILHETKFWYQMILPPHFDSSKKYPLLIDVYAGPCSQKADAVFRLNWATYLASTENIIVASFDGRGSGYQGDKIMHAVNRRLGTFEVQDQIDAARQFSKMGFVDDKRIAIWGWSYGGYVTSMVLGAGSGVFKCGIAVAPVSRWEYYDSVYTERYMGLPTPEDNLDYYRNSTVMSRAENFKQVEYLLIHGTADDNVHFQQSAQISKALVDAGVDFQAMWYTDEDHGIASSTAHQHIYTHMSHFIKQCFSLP

Cn1c(=O)cc(N2CCC[C@@H](N)C2)n(Cc2ccccc2C#N)c1=O [alogliptin, 2-[6-(3(R)-aminopiperidin-1-yl)-3-methyl-2,4-dioxo-3,4-dihydro-2H-pyrimidin-1-ylmethyl]benzonitrile, reference compound]
binding to human plasma protein (human plasma protein): 28.2–32.3%

Cn1c(=O)cc(N2CCC[C@@H](N)C2)n(Cc2cc(F)ccc2C#N)c1=O [trelagliptin, 2-[6-(3(R)-aminopiperidin-1-yl)-3-methyl-2,4-dioxo-3,4-dihydro-2H-pyrimidin-1-ylmethyl]-4-fluorobenzonitrile]
binding to human plasma protein (human plasma protein): 22.1–27.6%
IC50 [1]: > 100000 nM
IC50 [2]: 6.2 nM
plasma trelagliptin concentration [mean (SD)] [3]: 2.12 (0.679) ng/mL
safety in clinical studies (T2DM patients; clinical studies): no major safety concerns
efficacy in terms of reduction of HbA1c versus alogliptin 25 mg daily dosing (T2DM patients; trelagliptin 100 mg weekly dosing, T2DM patients): non-inferior
